Experimental data taken from ChEMBL document CHEMBL4483862, “Open-source discovery of chemical leads for next-generation chemoprotective antimalarials” (2018).

System: Plasmodium berghei
Experiment: Luciferase/luciferin-expressing antifolate-resistant parasites were used to infect a culture of HepG2 cells that were pre-incubated with compounds. Infected hepatocytes emit light due to the luciferase reaction. Assay results are presented as the percent inhibition of light emission compared to control. […]
Format: functional
Conditions: sporozoite; for IC90: read-out: LUCIFERASE INFECTION ASSAY - IC90
[1] = read-out: LUCIFERASE INFECTION ASSAY - IC50

N#C/C(=C\C=C\c1ccccc1[N+](=O)[O-])C(=O)NC1CCCCC1
IC50 (HEPG2TOX_HILL_SLOPE 4.42, HEPG2TOX_R_SQUARED 0.954, PBLUC_HILL_SLOPE 12.2, PBLUC_R_SQUARED 0.458, read-out: LUCIFERASE INFECTION ASSAY - IC50): 3.46 µM | IC90: 4.14 µM

Cc1ccccc1-n1c(C)cc(/C=C(\C#N)C(=O)NCC2CCCO2)c1C (stereo unspecified)
IC50 (PBLUC_HILL_SLOPE 1.57, PBLUC_R_SQUARED 0.725, read-out: LUCIFERASE INFECTION ASSAY - IC50): 1.55 µM | IC90: 6.25 µM

O=C(NC1CC1)c1ccc(-c2cnc3cnc(-c4ccc(CNc5ccccc5)cc4)cn23)cc1
IC50 (PBLUC_HILL_SLOPE 4.2, PBLUC_R_SQUARED 0.624, read-out: LUCIFERASE INFECTION ASSAY - IC50): 4.59 µM | IC90: > 7.18 µM

C1=C(c2ccccc2)CCN(Cc2cccc3cccnc23)C1
IC50 (HEPG2TOX_HILL_SLOPE 3.29, HEPG2TOX_R_SQUARED 0.953, PBLUC_HILL_SLOPE 4.04, PBLUC_R_SQUARED 0.237, read-out: LUCIFERASE INFECTION ASSAY - IC50): 5.62 µM | IC90: 9.68 µM

Cc1sc(NC(=O)Cc2coc3cc4c(cc23)CCC4)nc1-c1ccc(Cl)cc1
IC50 [1]: > 10 µM | IC90: > 10 µM

CNc1nc2cnc(Nc3cc(OC)cc(C(F)(F)F)c3)cc2n1Cc1ccco1
IC50 [1]: > 10 µM | IC90: > 10 µM

CC(=O)N/C(=C\c1ccccc1)C(=O)OCc1ncc(-c2ccccc2)o1
IC50 [1]: > 10 µM | IC90: > 10 µM

FC(F)Sc1ccc(Nc2ncnc3sccc23)cc1
IC50 (PBLUC_HILL_SLOPE 12.8, PBLUC_R_SQUARED 0.441, read-out: LUCIFERASE INFECTION ASSAY - IC50): 9.17 µM | IC90: > 10 µM

Cc1ccc(C)c(OCCN2CCN(CC(=O)Nc3c(C)cccc3C)CC2)c1
IC50 [1]: > 10 µM | IC90: > 10 µM

CN(C)c1cccc(-c2cnc3cnc(-c4ccc(CO)cc4)cn23)c1
IC50 (PBLUC_HILL_SLOPE 3.53, PBLUC_R_SQUARED 0.408, read-out: LUCIFERASE INFECTION ASSAY - IC50): 6.91 µM | IC90: > 9.58 µM

Fc1ccc(-c2ccnc3n[nH]c(C4CC4)c23)cc1Cl
IC50 (HEPG2TOX_HILL_SLOPE 9.31, HEPG2TOX_R_SQUARED 0.217, read-out: LUCIFERASE INFECTION ASSAY - IC50): > 10 µM | IC90: > 10 µM

CC(C)NC(=O)N1CCCC(C(=O)Nc2nc3ccccc3[nH]2)C1 (stereo unspecified)
IC50 (FFLUC_HILL_SLOPE 4.02, FFLUC_R_SQUARED 0.256, PBLUC_HILL_SLOPE 1.51, PBLUC_R_SQUARED 0.42, read-out: LUCIFERASE INFECTION ASSAY - IC50): 0.935 µM | IC90: 4 µM

OCc1ccc(-c2cnc3ccc(-c4ccoc4)nn23)cc1
IC50 [1]: 4.97 µM | IC90: > 10 µM

Cc1ccc(-c2csc(NC(=O)CSc3nc4ccccc4c(=O)n3CCCN(C)C)n2)cc1
IC50 [1]: > 10 µM | IC90: > 10 µM

O=C1c2ccccc2NC(c2cc(Br)cs2)N1C1CC1 (stereo unspecified)
IC50 [1]: > 10 µM | IC90: > 10 µM

CC(=O)c1sc(-c2ccc(OCC(=O)Nc3ccc(S(=O)(=O)N4CCCC4)cc3)cc2)nc1C
IC50 [1]: > 10 µM | IC90: > 10 µM

O=S(=O)(c1ccc2oc(Nc3ccc(-c4nc5ccccc5[nH]4)cc3)nc2c1)N1CCOCC1
IC50 (HEPG2TOX_HILL_SLOPE 1.96, HEPG2TOX_R_SQUARED 0.85, PBLUC_HILL_SLOPE 1.98, 8.82, PBLUC_R_SQUARED 0.398, 0.470, read-out: LUCIFERASE INFECTION ASSAY - IC50): 1.54 µM | IC90: 3.62 µM

C=CCn1c(SCC(=O)c2cc(C)n(-c3cc(F)ccc3F)c2C)nc2scc(-c3ccccc3)c2c1=O
IC50 (PBLUC_HILL_SLOPE 5.29, PBLUC_R_SQUARED 0.561, read-out: LUCIFERASE INFECTION ASSAY - IC50): 5.65 µM | IC90: 8.56 µM

N#CC1=C2Sc3ccccc3N2C(O)(C(F)(F)F)C(C(=O)C(F)(F)F)=C1 (stereo unspecified)
IC50 (PBLUC_HILL_SLOPE 9.79, 8.06, PBLUC_R_SQUARED 0.178, 0.335, read-out: LUCIFERASE INFECTION ASSAY - IC50): 3.71 µM | IC90: 4.76 µM

CC(=O)C1C2C(=O)N(C(C)(C)C)C(=O)C2C2C=Cc3ccc4cccnc4c3N21 (stereo unspecified)
IC50 (HEPG2TOX_HILL_SLOPE 8.2, HEPG2TOX_R_SQUARED 0.867, PBLUC_HILL_SLOPE 4.87, PBLUC_R_SQUARED 0.475, read-out: LUCIFERASE INFECTION ASSAY - IC50): 4.09 µM | IC90: 6.42 µM

COc1cc(-c2ccc(N3CCN(c4ccncc4)CC3)nc2)cc(OC)c1OC
IC50 (HEPG2TOX_HILL_SLOPE 1.45, HEPG2TOX_R_SQUARED 0.424, PBLUC_HILL_SLOPE 3.58, PBLUC_R_SQUARED 0.452, read-out: LUCIFERASE INFECTION ASSAY - IC50): 6.09 µM | IC90: > 8.12 µM

S=C1CCc2ccccc2N1Cc1ccccc1
IC50 (PBLUC_HILL_SLOPE 2.45, PBLUC_R_SQUARED 0.245, read-out: LUCIFERASE INFECTION ASSAY - IC50): > 13 µM | IC90: > 13 µM

CCC1Oc2ccccc2C(=O)N(Cc2ccccc2F)C1=O (stereo unspecified)
IC50 [1]: > 10.5 µM | IC90: > 10.5 µM

c1ccc2cc(C3=NNC(=NC4CC4)SC3)ccc2c1
IC50 (FFLUC_HILL_SLOPE 2.37, FFLUC_R_SQUARED 0.781, HEPG2TOX_HILL_SLOPE 1.63, HEPG2TOX_R_SQUARED 0.913, PBLUC_HILL_SLOPE 5.38, PBLUC_R_SQUARED 0.229, read-out: LUCIFERASE INFECTION ASSAY - IC50): 0.0129 µM | IC90: 0.0194 µM

COc1ccc(NS(=O)(=O)c2cc(NC(=O)c3cc(S(=O)(=O)Nc4ccc(Cl)cc4)ccc3Cl)ccc2N2CCOCC2)cc1
IC50 [1]: > 10 µM | IC90: > 10 µM

CCOC(=O)C1CCN(c2cc(C(F)(F)F)nc3c(F)cccc23)CC1
IC50 (FFLUC_HILL_SLOPE 11, FFLUC_R_SQUARED 0.219, read-out: LUCIFERASE INFECTION ASSAY - IC50): > 8.91 µM | IC90: > 8.91 µM

CC(NCC(=O)N1c2ccc(S(N)(=O)=O)cc2CC1C)C1CC2CCC1C2 (stereo unspecified)
IC50 (FFLUC_HILL_SLOPE 16.6, FFLUC_R_SQUARED 0.154, PBLUC_HILL_SLOPE 1.1, PBLUC_R_SQUARED 0.764, read-out: LUCIFERASE INFECTION ASSAY - IC50): 1.03 µM | IC90: 7.51 µM

COC(=O)c1scc(S(=O)(=O)Cc2ccco2)c1NN=C(C#N)C#N
IC50 [1]: > 8.72 µM | IC90: > 8.72 µM

c1cnc2ccc(-c3cnc4cnc(-c5ccsc5)cn34)cc2c1
IC50 (HEPG2TOX_HILL_SLOPE 5.76, HEPG2TOX_R_SQUARED 0.0288, PBLUC_HILL_SLOPE 1.24, PBLUC_R_SQUARED 0.576, read-out: LUCIFERASE INFECTION ASSAY - IC50): 3.87 µM | IC90: > 10 µM

CCOC(=O)c1sc2ncn(-n3c(C)ccc3C)c(=O)c2c1C
IC50 (PBLUC_HILL_SLOPE 2.28, PBLUC_R_SQUARED 0.71, read-out: LUCIFERASE INFECTION ASSAY - IC50): 2.9 µM | IC90: 7.62 µM

CC(C)n1ncc2cc(NC(=O)c3cccc(S(=O)(=O)NCc4ccccc4)c3)cnc21
IC50 (PBLUC_HILL_SLOPE 1.68, PBLUC_R_SQUARED 0.408, read-out: LUCIFERASE INFECTION ASSAY - IC50): 6.12 µM | IC90: > 10 µM

Cn1ncc2c(NCc3ccc(-c4ccc(Cl)cc4)o3)ncnc21
IC50 (HEPG2TOX_HILL_SLOPE 0.521, HEPG2TOX_R_SQUARED 0.423, PBLUC_HILL_SLOPE 3.64, PBLUC_R_SQUARED 0.888, read-out: LUCIFERASE INFECTION ASSAY - IC50): 0.306 µM | IC90: 0.56 µM

c1cncc(Cn2cnc3cnc(Nc4cccnc4)cc32)c1
IC50 [1]: > 10 µM | IC90: > 10 µM

Nc1cccc(OCc2cccnc2)c1
IC50 [1]: > 10 µM | IC90: > 10 µM

O=c1[nH]c2ccccc2c(-c2ccccc2)c1SCc1ccc2c(c1)OCO2
IC50 (FFLUC_HILL_SLOPE 8.09, FFLUC_R_SQUARED 0.216, HEPG2TOX_HILL_SLOPE 4.47, HEPG2TOX_R_SQUARED 0.957, PBLUC_HILL_SLOPE 2.12, PBLUC_R_SQUARED 0.535, read-out: LUCIFERASE INFECTION ASSAY - IC50): 4.38 µM | IC90: > 10 µM

Cc1[nH]c2ccc(C(=O)Nc3ccc(-n4cnnn4)cc3)cc2c1C
IC50 [1]: > 10 µM | IC90: > 10 µM

CCC(C)(C)c1ccc(Oc2ccc(NC(=O)COC(=O)C3=COCCO3)cc2)cc1
IC50 (PBLUC_HILL_SLOPE 2.38, PBLUC_R_SQUARED 0.497, read-out: LUCIFERASE INFECTION ASSAY - IC50): 5.8 µM | IC90: > 10 µM

O=C1C(=O)N(Cc2cc3c(cc2Cl)OCO3)c2ccc(Br)cc21
IC50 (FFLUC_HILL_SLOPE 13.4, FFLUC_R_SQUARED 0.714, HEPG2TOX_HILL_SLOPE 8.11, HEPG2TOX_R_SQUARED 0.359, PBLUC_HILL_SLOPE 6.2, PBLUC_R_SQUARED 0.151, read-out: LUCIFERASE INFECTION ASSAY - IC50): 7.48 µM | IC90: > 8.36 µM

Cc1ccc(S(=O)(=O)c2c(C)nn(C(C)(C)C)c2OC(=O)c2cccs2)cc1
IC50 [1]: > 10 µM | IC90: > 10 µM

CCOC(=O)c1nn(Cc2cccc(OC)c2)c2c1CN(C(=O)c1cc3ccccc3o1)CC2
IC50 (PBLUC_HILL_SLOPE 17.5, PBLUC_R_SQUARED 0.669, read-out: LUCIFERASE INFECTION ASSAY - IC50): 7.12 µM | IC90: > 7.18 µM

N#C/C(=N\Nc1ccccc1Cl)S(=O)(=O)c1ccc(Cl)cc1
IC50 (HEPG2TOX_HILL_SLOPE 2.02, HEPG2TOX_R_SQUARED 0.971, PBLUC_HILL_SLOPE 7.31, PBLUC_R_SQUARED 0.396, read-out: LUCIFERASE INFECTION ASSAY - IC50): 3.55 µM | IC90: 4.8 µM

Cc1ccc(O)c(C(=O)c2cnc3cc4c(cc3c2)OCCO4)c1
IC50 (HEPG2TOX_HILL_SLOPE 0.914, HEPG2TOX_R_SQUARED 0.945, PBLUC_HILL_SLOPE 1.42, PBLUC_R_SQUARED 0.804, read-out: LUCIFERASE INFECTION ASSAY - IC50): 0.172 µM | IC90: 0.81 µM

Cc1ccc(-n2c(N(C)C)nc(/C=C(\C#N)C(=O)NC(C)c3ccccc3)c2Cl)cc1 (stereo unspecified)
IC50 (FFLUC_HILL_SLOPE 1.62, FFLUC_R_SQUARED 0.252, read-out: LUCIFERASE INFECTION ASSAY - IC50): > 10 µM | IC90: > 10 µM
